What was measured:
ARH-77 = assay: Cytotoxicity assay (MTT, 72 h) ARH-77; type: cell-based; settings: Homo sapiens, read-out: IC50 ± SD ARH-77
JECO-1 = assay: Cytotoxicity assay (MTT, 72 h) JECO-1; type: cell-based, Human; settings: Homo sapiens; 72 h, MTT assay; read-out: IC50 ± SD JECO-1
DG-75 = assay: Cytotoxicity assay (MTT, 72 h) DG-75; type: cell-based, Human; settings: Homo sapiens, DG-75; 72 h, MTT assay; read-out: IC50 ± SD DG-75
Acetylated Tubulin = assay: Western blot, acetylation of tubulin in NCI-H460 cells; type: cell-based, Human; settings: 24 h; SN38 0.05 μM, SAHA 5 μM, 3b and 3d 0.125–0.2–0.5 μM
Protocol: (§1) The supernatant, containing the total proteins extracts, were transferred in new vials. The protein concentration was measured by Bradford Protein Assay. Equal amounts of proteins for each sample were then resolved by SDS-PAGE and loaded on 10–12% polyacrilamide gels. The proteins were then transferred on nitrocellulose membranes. Molecular weights were estimated based upon the relative migration with molecular weight protein markers.
(§2) The non-specific binding was blocked by incubation of membranes in TBS-tween (25 mM Tris, 150 mM NaCl, 0.1% Tween 20) with 5% nonfat dry milk (BIORAD, Milan) for 60 minutes. Subsequently, the membrane was incubated overnight with primary antibodies: anti-Histone H4 (Millipore, 1:500), anti-acetyl-H4 (Santa Cruz, 1:1000) anti-p21 (Santa Cruz, 1:1000), anti-acetyl-tubulin (abcam, 1:1000), anti-α-tubulin (Sigma, 1:5000), anti β-actin (Sigma, 1:5000) and anti-Topoisomerase 1 (Santa Cruz, 1:500). After three washes with TBST blots were incubated with HRP-coniugated secondary anti-mouse and anti-rabbit (Santa Cruz, 1:5000) 1 hour at room temperature. After three washes with TBST the blots were developed with ECL substrate (GE Healthcare) and chemiluminescence detected by ChemiDoc Imaging System (Biorad). The optical density of the protein bands detected by western blotting was normalized on α -tubulin levels and analyzed by ChemiDoc software (Biorad). […]

MM317 = assay: Cytotoxicity assay, primary mesothelioma MM317; type: cell-based, Human; settings: Homo sapiens; epithelioid, 72 h, SBR assay; read-out: IC50 ± SD MM317
HT29 = assay: Cytotoxicity assay (SRB, 72 h) HT29; type: cell-based, Human; settings: Homo sapiens, HT-29, read-out: IC50 ± SD HT29
MM432 = assay: Cytotoxicity assay, primary mesothelioma MM432; type: cell-based, Human; settings: Homo sapiens; sarcomatoid, 72 h, SBR assay; read-out: IC50 ± SD MM432
H2A.X = assay: Western blot, H2A.X induction in NCI-H460 cells; type: cell-based, Human; settings: 24 h; SAHA 5 μM, SN38 0.05 μM, 3d 0.125–0.2–0.5 μM
Protocol: as §1
(§3) The non-specific binding was blocked by incubation of membranes in TBS-tween (25 mM Tris, 150 mM NaCl, 0.1% Tween 20) with 5% nonfat dry milk (BIORAD, Milan) for 60 minutes. Subsequently, the membrane was incubated overnight with primary antibodies: anti-Histone H4 (Millipore, 1:500), anti-acetyl-H4 (Santa Cruz, 1:1000) anti-p21 (Santa Cruz, 1:1000), anti-acetyl-tubulin (abcam, 1:1000), anti-α-tubulin (Sigma, 1:5000), anti β-actin (Sigma, 1:5000) and anti-Topoisomerase 1 (Santa Cruz, 1:500). After three washes with TBST blots were incubated with HRP-coniugated secondary anti-mouse and anti-rabbit (Santa Cruz, 1:5000) 1 hour at room temperature. After three washes with TBST the blots were developed with ECL substrate (GE Healthcare) and chemiluminescence detected by ChemiDoc Imaging System (Biorad). The optical density of the protein bands detected by western blotting was normalized on α -tubulin levels and analyzed by ChemiDoc software (Biorad).
(§4) Cells were lysed in 0.5% NP-40 and 40 μg of total proteins were loaded on NuPAGE 4–12% (Invitrogen), transferred to a nitrocellulose paper and probed with specific antibodies.

NCI-H460 NSCLC cells = assay: FACS analysis of cell cycle and apoptosis; type: cell-based, Human; settings: 72 h at own IC80 dose, PI staining
MM491 = assay: Cytotoxicity assay, primary mesothelioma MM491; type: cell-based, Human; settings: Homo sapiens; biphasic, 72 h, SBR assay; read-out: IC50 ± SD MM491
[1] = system: primary malignant pleural mesothelioma (MPM) cell lines; assay: Primary malignant pleural mesothelioma (MPM) cell lines (summary); type: cell-based; settings: Homo sapiens, span over the cell line panel, 72 h, read-out: IC50 across primary mesothelioma cell lines (Table 7)
U937 = assay: Cytotoxicity assay (MTT, 72 h) U937; type: cell-based; settings: Homo sapiens, U-937, read-out: IC50 ± SD U937
Capan 1 = assay: Cytotoxicity assay (SRB, 72 h) Capan 1; type: cell-based, Human; settings: Homo sapiens, CAPAN-1, read-out: IC50 ± SD Capan 1
MM472 = assay: Cytotoxicity assay, primary mesothelioma MM472; type: cell-based, Human; settings: Homo sapiens; sarcomatoid, 72 h, SBR assay; read-out: IC50 ± SD MM472
[2] = system: hematologic cancer cell lines; assay: Screening on hematologic cancer cell lines (summary); type: cell-based; settings: Homo sapiens, read-out: IC50 across hematologic cancer cell lines (Tables 5 and 6); span over the cell line panel, 72 h, MTT assay
MINO = assay: Cytotoxicity assay (MTT, 72 h) MINO; type: cell-based, Human; settings: Homo sapiens, MINO; 72 h, MTT assay; read-out: IC50 ± SD MINO
MM404 = assay: Cytotoxicity assay, primary mesothelioma MM404; type: cell-based, Human; settings: Homo sapiens; epithelioid, 72 h, SBR assay; read-out: IC50 ± SD MM404
U-2932 = assay: Cytotoxicity assay (MTT, 72 h) U-2932; type: cell-based, Human; settings: Homo sapiens, U2932, read-out: IC50 ± SD U-2932
HDAC10 = HDAC10 (Homo sapiens, UniProt Q969S8); assay: HDAC profiling HDAC10; type: biochemical; settings: purified isoform, 10 concentrations from 10 μM, triplicate
HDAC10, sequence (Q969S8 whole entry, canonical isoform): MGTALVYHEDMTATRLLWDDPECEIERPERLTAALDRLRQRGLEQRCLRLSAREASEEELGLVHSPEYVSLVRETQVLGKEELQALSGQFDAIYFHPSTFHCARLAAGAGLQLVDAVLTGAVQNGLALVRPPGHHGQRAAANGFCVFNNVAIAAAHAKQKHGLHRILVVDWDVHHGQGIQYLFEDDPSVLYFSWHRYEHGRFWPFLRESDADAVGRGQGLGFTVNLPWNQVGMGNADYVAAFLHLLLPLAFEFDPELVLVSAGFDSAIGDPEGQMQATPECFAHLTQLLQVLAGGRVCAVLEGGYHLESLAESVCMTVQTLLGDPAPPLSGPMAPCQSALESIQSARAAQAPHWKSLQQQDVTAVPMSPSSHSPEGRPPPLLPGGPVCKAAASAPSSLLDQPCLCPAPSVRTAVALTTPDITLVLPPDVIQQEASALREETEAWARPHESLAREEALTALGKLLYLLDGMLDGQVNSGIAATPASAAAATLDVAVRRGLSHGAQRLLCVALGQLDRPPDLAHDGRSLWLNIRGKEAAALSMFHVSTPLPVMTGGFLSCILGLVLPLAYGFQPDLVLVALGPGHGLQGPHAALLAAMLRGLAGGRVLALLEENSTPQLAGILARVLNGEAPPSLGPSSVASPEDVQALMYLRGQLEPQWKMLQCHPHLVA

[3] = system: human epithelioid mesothelioma MM473-Luc; assay: In vivo antitumor activity, orthotopic MM473-Luc xenograft; settings: i.v. 45 mg/kg, q4dx3w, treatment from day 15
REC-1 = assay: Cytotoxicity assay (MTT, 72 h) REC-1; type: cell-based; settings: Homo sapiens, Rec1, read-out: IC50 ± SD REC-1
HeLa = assay: Cytotoxicity assay (SRB, 72 h) HeLa; type: cell-based, Human; settings: Homo sapiens, HeLa, read-out: IC50 ± SD HeLa
A431 = assay: Cytotoxicity assay (SRB, 72 h) A431; type: cell-based, Human; settings: Homo sapiens, A-431, read-out: IC50 ± SD A431
DU145 = assay: Cytotoxicity assay (SRB, 72 h) DU145; type: cell-based, Human; settings: Homo sapiens, DU-145, read-out: IC50 ± SD DU145
Top1 = assay: Western blot, Top1 expression in NCI-H460 cells; type: cell-based, Human; settings: 24 h; SAHA 5 μM, SN38 0.05 μM, 3d 0.125–0.2–0.5 μM
Protocol: as §1, §2

CycD1 = assay: Western blot, CycD1 in NCI-H460 cells; type: cell-based, Human; settings: 24 h; SAHA 5 μM, SN38 0.05 μM, 3d 0.125–0.2–0.5 μM
Protocol: as §1, §3, §4

p16 = assay: Western blot, p16 in NCI-H460 cells; type: cell-based, Human; settings: 24 h; SAHA 5 μM, SN38 0.05 μM, 3d 0.125–0.2–0.5 μM
Protocol: as §1, §3, §4

Work on `CC[C@@]1(O)C(=O)OCc2c1cc1n(c2=O)Cc2c-1nc1ccc(O)cc1c2C=NOCCCCCC(=O)NO` [Compound 3d, 6-(10-hydroxycamptothecin-7-ylmethyleneaminooxy)-hexanoic acid hydroxyamide] yielded an IC50 (ARH-77) of 210 ± 60 nM, an IC50 (JECO-1) of 23 ± 6 nM and an IC50 (DG-75) of 1900 ± 200 nM. The “accumulation of acetylated tubulin” value (Acetylated Tubulin) was “H4 and tubulin acetylation in a dose dependent manner”, the IC50 (MM317) was 850 ± 200 nM and the IC50 (HT29) was 390 ± 100 nM. The IC50 (MM432) was 160 ± 30 nM, the “H2A.X induction (DNA damage)” value (H2A.X) was “DNA damage at a dose corresponding to its IC80, confirmed by H2A.X induction” and the “G0/1 (%)” value (NCI-H460 NSCLC cells) was 12.1%. The “G2/M (%)” value (NCI-H460 NSCLC cells) was 11.9%, the “S (%)” value (NCI-H460 NSCLC cells) was 76.0% and the “Sub-G0/1 (%)” value (NCI-H460 NSCLC cells; apoptosis) was 15.2%. The IC50 (MM491) was 870 ± 300 nM, the IC50 [1] was 50 to 11000 nM and the IC50 (U937) was 180 ± 50 nM. It also gave an IC50 (Capan 1) of 35 ± 2 nM, an IC50 (MM472) of 48 ± 10 nM and an IC50 [2] of 6 to 4000 nM. The IC50 (MINO) was 31 ± 10 nM, the IC50 (MM404) was 1400 ± 300 nM and the IC50 (U-2932) was 44 ± 10 nM. For the same compound, the IC50 (HDAC10) was 224 nM, the “antitumor activity (BLI signal, average radiance)” value [3] was “strong antitumor activity” and the IC50 (REC-1) was 180 ± 40 nM. It also gave an IC50 (HeLa) of 180 ± 50 nM, an IC50 (A431) of 140 ± 20 nM and an IC50 (DU145) of 70 ± 3 nM. For the same compound, the “expression of Top1” value (Top1) was “drastically reduced the expression of Top1”, the CycD1 regulation (CycD1) was “didn’t show any effect” and the P16 regulation (p16) was “didn’t show any effect”.

Source: paper PMC6177136, “Hybrid topoisomerase I and HDAC inhibitors as dual action anticancer agents” (PLoS ONE, 2018)
